Measurements from US7820701B2, “Amorphous lercanidipine hydrochloride and uses thereof” (Recordati Ireland Limited, priority 2005, dated 2010).
Where a name gives a salt, the structure may show the parent alone.

Assay: Aqueous solubility of amorphous vs crystalline lercanidipine hydrochloride
Assay type: physicochemical
Conditions: water, stirring at 27-28° C. for 24 hr, filtered, HPLC
Procedure: The aqueous solubility of amorphous lercanidipine hydrochloride, was compared to the solubility of crystalline lercanidipine hydrochloride. The solubility of the respective samples was determined by suspending 20-30 mg of sample test was in 10 mL water and stirring at 27-28° C. for 24 hr. The sample was then filtered through a PVDF filter (0.2 micron) and the solution diluted with acetonitrile and analyzed by HPLC.

Row | SOLUBILITY | SMILES
1 | 1.5 mg/L | COC(=O)C1=C(C)NC(C)=C(C(=O)OC(C)(C)CN(C)CCC(c2ccccc2)c2ccccc2)C1c1cccc([N+](=O)[O-])c1 (stereo not drawn) [Amorphous lercanidipine HCl (Example 1), methyl 1,1,N-trimethyl-N-(3,3-diphenylpropyl)-2-aminoethyl 1,4-dihydro-2,6-dimethyl-4-(3-nitrophenyl)pyridine-3,5-dicarboxylate]
2 | 1.5 mg/L | COC(=O)C1=C(C)NC(C)=C(C(=O)OC(C)(C)CN(C)CCC(c2ccccc2)c2ccccc2)C1c1cccc([N+](=O)[O-])c1 (stereo not drawn) [Amorphous lercanidipine HCl (Example 2), methyl 1,1,N-trimethyl-N-(3,3-diphenylpropyl)-2-aminoethyl 1,4-dihydro-2,6-dimethyl-4-(3-nitrophenyl)pyridine-3,5-dicarboxylate]
3 | 0.65 mg/L | COC(=O)C1=C(C)NC(C)=C(C(=O)OC(C)(C)CN(C)CCC(c2ccccc2)c2ccccc2)C1c1cccc([N+](=O)[O-])c1 (stereo not drawn) [Crystalline lercanidipine HCl (Form I), methyl 1,1,N-trimethyl-N-(3,3-diphenylpropyl)-2-aminoethyl 1,4-dihydro-2,6-dimethyl-4-(3-nitrophenyl)pyridine-3,5-dicarboxylate, reference compound]
